Measurements from ChEMBL document CHEMBL5380850, “Discovery of the First Raptor (Regulatory-Associated Protein of mTOR) Inhibitor as a New Type of Antiadipogenic Agent” (J Med Chem, 2023).
Activity calls are given as the source filed them. No cut-off for these calls is given here.

Tests used:
Mus musculus [1] = test: Anti-obesity activity in high fat diet-induced obese C57BL/6J mouse model assessed as reduction in triglyceride level at 40 mg/kg, ip administered every two days for 46 days; assay type: functional, organism-based; conditions: time 46.0 day
[2] = target: Serine/threonine-protein kinase mTOR (Mus musculus) (UniProt Q9JLN9); test: Inhibition of mTOR signalling in mouse 3T3-L1 cells assessed as upregulation of ATG5 expression level at 0.1 to 10 uM incubated for 24 hrs by Western blot analysis; assay type: cell-based; conditions: dose 0.1-10 µM
3T3-L1 [3] = test: Anti-adipogenic activity in siRNA-mediated LC3B knockdown mouse 3T3-L1 cells assessed as decrease in triglyceride level at 10 uM by Oil Red O staining based microscopic analysis; assay type: functional, cell-based
mTORC1 (Mus musculus) [4] = target: mTORC1 (Mus musculus) (UniProt Q9JLN9); test: Inhibition of mTORC1 formation in mouse 3T3-L1 cells assessed as decrease in phosphorylated-S6K1 expression level at 10 uM incubated for 24 hrs by Western blot analysis; assay type: cell-based
Mus musculus [5] = test: Anti-obesity activity in high fat diet-induced obese C57BL/6J mouse assessed as reduction in visceral fat content by measuring perirenal white adipose tissue weight at 40 mg/kg, ip administered every two days for 46 days; assay type: functional, organism-based; conditions: time 46.0 day
Mus musculus [6] = test: Anti-obesity activity in high fat diet-induced obese C57BL/6J mouse model assessed as reduction in plasma insulin level at 40 mg/kg, ip administered every two days for 46 days; assay type: functional, organism-based; conditions: time 46.0 day
[7] = target: Regulatory-associated protein of mTOR (Mus musculus) (UniProt Q8K4Q0); test: Binding affinity to Raptor in mouse 3T3-L1 cells assessed thermal stabilization at 10 uM incubated 30 mins by […] analysis
Regulatory-associated protein of mTOR (Mus musculus), sequence (Q8K4Q0 whole entry, looked up): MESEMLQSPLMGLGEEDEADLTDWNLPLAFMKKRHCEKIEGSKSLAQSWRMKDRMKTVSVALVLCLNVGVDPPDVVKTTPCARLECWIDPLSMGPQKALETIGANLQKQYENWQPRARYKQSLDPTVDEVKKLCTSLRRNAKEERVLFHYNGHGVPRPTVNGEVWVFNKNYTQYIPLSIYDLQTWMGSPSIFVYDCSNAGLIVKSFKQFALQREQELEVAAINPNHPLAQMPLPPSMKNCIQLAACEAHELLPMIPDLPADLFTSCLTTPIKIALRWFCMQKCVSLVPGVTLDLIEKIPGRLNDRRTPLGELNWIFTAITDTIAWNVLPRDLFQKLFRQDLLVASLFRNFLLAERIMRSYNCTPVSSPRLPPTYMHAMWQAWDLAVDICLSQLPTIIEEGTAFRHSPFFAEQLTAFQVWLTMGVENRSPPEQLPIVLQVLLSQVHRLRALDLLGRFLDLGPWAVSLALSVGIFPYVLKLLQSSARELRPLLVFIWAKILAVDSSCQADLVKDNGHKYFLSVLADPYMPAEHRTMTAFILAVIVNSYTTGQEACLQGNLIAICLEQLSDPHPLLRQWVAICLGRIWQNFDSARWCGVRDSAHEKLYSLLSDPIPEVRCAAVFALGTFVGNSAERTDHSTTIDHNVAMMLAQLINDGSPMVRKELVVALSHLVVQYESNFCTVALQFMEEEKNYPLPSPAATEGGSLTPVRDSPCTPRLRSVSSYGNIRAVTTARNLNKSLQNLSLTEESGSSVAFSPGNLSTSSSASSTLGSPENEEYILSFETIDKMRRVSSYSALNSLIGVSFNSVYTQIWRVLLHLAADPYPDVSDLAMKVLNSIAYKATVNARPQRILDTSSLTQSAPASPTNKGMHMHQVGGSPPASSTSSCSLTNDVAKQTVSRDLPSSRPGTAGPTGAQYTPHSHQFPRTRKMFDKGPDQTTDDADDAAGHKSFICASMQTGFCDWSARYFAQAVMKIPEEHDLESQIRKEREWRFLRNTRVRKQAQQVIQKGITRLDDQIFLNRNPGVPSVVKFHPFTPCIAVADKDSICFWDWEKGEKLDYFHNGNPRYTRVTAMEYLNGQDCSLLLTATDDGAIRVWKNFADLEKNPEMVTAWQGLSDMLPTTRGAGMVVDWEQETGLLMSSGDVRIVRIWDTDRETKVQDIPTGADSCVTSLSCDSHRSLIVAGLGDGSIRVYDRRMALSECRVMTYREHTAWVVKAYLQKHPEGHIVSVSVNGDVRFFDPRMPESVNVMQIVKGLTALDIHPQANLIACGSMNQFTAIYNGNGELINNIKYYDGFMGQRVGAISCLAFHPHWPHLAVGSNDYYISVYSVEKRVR

Mus musculus [8] = test: Anti-obesity activity in high fat diet-induced obese C57BL/6J mouse model assessed as increase in […] expression level in inguen white adipose tissue at 40 mg/kg, ip administered every two days for 46 days by immunohistochemical analysis; assay type: functional, organism-based; conditions: time 46.0 day
Mus musculus [9] = test: Anti-obesity activity in high fat diet-induced obese C57BL/6J mouse model assessed as increase in PGC-1alpha expression level in brown adipocyte at 40 mg/kg, ip administered every two days for 46 days by immunohistochemical analysis; assay type: functional, organism-based; conditions: time 46.0 day
[10] = target: Serine/threonine-protein kinase mTOR (Mus musculus) (UniProt Q9JLN9); test: Inhibition of mTOR signalling in mouse 3T3-L1 cells assessed as upregulation of LC3I expression level at 0.1 to 10 uM incubated for 24 hrs by Western blot analysis; assay type: cell-based; conditions: dose 0.1-10 µM
Mus musculus [11] = test: Anti-obesity activity in high fat diet-induced obese C57BL/6J mouse model assessed as reduction in hepatic triglyceride level at 40 mg/kg, ip administered every two days for 46 days; assay type: functional, organism-based; conditions: time 46.0 day
3T3-L1 [12] = test: Anti-adipogenic activity against mouse 3T3-L1 cells at adipogenesis stage assessed as decrease in triglyceride level at 1 uM and measured upto 3 days by Oil Red O staining based spectroscopic analysis; assay type: functional, cell-based; conditions: time <= 3.0 day
3T3-L1 [13] = test: Anti-adipogenic activity against mouse 3T3-L1 cells assessed as downregulation of ACC mRNA expression level at 0.1 to 1 uM incubated for 6 days by RT-qPCR analysis; assay type: functional, cell-based; conditions: dose 0.1-1 µM, time 6.0 day
mTORC1 (Mus musculus) [14] = target: mTORC1 (Mus musculus) (UniProt Q9JLN9); test: Inhibition of mTORC1 formation in mouse 3T3-L1 cells assessed as increase in 4E-BP1 expression level at 10 uM incubated for 24 hrs by Western blot analysis; assay type: cell-based
Mus musculus [15] = test: Anti-obesity activity in high fat diet-induced obese C57BL/6J mouse model assessed as reduction in plasma ALT level at 40 mg/kg, ip administered every two days for 46 days; assay type: functional, organism-based; conditions: time 46.0 day
3T3-L1 [16] = test: Anti-adipogenic activity in SiRNA mediated Raptor knockdown mouse 3T3-L1 cells assessed as FAS expression level at 10 uM by Western blot analysis; assay type: functional, cell-based
mTORC1 (Mus musculus) [17] = target: mTORC1 (Mus musculus) (UniProt Q9JLN9); test: Inhibition of mTORC1 formation in siRNA mediated Raptor knockdown mouse 3T3-L1 cells assessed as decrease in 4E-BP1 expression level at 10 uM incubated for 24 hrs by Western blot analysis; assay type: cell-based
mTORC1 (Mus musculus) [18] = target: mTORC1 (Mus musculus) (UniProt Q9JLN9); test: Inhibition of mTORC1 formation in siRNA mediated Raptor knockdown mouse 3T3-L1 cells assessed as decrease in phosphorylated 4E-BP1 expression level at 10 uM incubated for 24 hrs by Western blot analysis; assay type: cell-based
3T3-L1 [19] = test: Anti-adipogenic activity against mouse 3T3-L1 cells assessed as downregulation of C/EBPbeta protein expression level at 0.1 to 1 uM incubated for 24 hrs by Western blot analysis; assay type: functional, cell-based; conditions: dose 0.1-1 µM
Mus musculus [20] = test: Anti-obesity activity in high fat diet-induced obese C57BL/6J mouse model assessed as reduction in plasma glucose level at 40 mg/kg, ip administered every two days for 14 days; assay type: functional, organism-based; conditions: time 14.0 day
[21] = target: Serine/threonine-protein kinase mTOR (Mus musculus) (UniProt Q9JLN9); test: Inhibition of mTOR signalling in mouse 3T3-L1 cells assessed as upregulation of ATG3 expression level at 0.1 to 10 uM incubated for 24 hrs by Western blot analysis; assay type: cell-based; conditions: dose 0.1-10 µM
mTORC1 (Mus musculus) [22] = target: mTORC1 (Mus musculus) (UniProt Q9JLN9); test: Inhibition of mTORC1 formation in mouse 3T3-L1 cells assessed as decrease in Raptor/mTOR interaction at 10 uM incubated for 24 hrs by reciprocal co-immunoprecipitation assay; assay type: cell-based
3T3-L1 [23] = test: Anti-adipogenic activity against mouse 3T3-L1 cells assessed as downregulation of C/EBPbeta mRNA expression level at 0.1 to 1 uM incubated for 24 hrs by RT-qPCR analysis; assay type: functional, cell-based; conditions: dose 0.1-1 µM
[24] = target: Serine/threonine-protein kinase mTOR (Mus musculus) (UniProt Q9JLN9); test: Inhibition of mTOR signalling in mouse 3T3-L1 cells assessed as upregulation of LC3II expression level at 0.1 to 10 uM incubated for 24 hrs by Western blot analysis; assay type: cell-based; conditions: dose 0.1-10 µM
[25] = target: Regulatory-associated protein of mTOR (Homo sapiens, UniProt Q8N122); test: Binding affinity to recombinant human Raptor and measured for 200 sec by SPR analysis
Regulatory-associated protein of mTOR, sequence (Q8N122 whole entry): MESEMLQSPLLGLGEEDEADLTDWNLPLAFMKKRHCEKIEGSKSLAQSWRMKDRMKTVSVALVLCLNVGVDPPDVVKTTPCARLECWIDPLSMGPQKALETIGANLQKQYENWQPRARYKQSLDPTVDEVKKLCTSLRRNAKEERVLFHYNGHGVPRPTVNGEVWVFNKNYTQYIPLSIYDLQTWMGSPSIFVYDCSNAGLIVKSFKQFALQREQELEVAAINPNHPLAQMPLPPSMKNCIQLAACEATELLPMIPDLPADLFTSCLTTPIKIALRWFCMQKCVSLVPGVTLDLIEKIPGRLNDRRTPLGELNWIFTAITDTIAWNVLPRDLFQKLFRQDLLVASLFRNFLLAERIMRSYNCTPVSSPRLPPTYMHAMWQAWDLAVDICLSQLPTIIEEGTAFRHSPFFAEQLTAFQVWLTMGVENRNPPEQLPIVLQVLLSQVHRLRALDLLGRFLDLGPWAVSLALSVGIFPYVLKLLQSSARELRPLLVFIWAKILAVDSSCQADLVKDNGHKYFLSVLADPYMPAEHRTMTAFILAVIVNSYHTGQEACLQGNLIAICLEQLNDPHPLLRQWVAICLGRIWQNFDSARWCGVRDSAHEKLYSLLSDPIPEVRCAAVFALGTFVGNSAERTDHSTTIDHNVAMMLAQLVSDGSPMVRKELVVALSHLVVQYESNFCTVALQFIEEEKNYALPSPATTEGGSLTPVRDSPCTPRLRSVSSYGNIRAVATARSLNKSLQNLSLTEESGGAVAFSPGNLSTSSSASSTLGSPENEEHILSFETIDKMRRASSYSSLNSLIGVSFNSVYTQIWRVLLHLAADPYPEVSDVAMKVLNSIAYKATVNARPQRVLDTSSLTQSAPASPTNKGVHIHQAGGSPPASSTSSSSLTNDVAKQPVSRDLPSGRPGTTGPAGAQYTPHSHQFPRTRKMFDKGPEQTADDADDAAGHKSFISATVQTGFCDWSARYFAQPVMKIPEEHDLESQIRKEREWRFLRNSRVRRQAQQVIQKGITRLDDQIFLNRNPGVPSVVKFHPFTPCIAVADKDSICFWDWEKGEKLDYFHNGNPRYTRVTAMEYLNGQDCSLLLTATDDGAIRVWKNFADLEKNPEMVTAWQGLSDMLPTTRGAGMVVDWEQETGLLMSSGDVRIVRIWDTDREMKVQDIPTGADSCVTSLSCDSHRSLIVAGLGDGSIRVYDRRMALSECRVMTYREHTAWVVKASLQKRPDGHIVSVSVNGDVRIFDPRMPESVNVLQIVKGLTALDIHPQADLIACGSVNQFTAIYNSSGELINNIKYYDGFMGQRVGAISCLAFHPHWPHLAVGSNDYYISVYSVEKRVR

mTORC1 (Mus musculus) [26] = target: mTORC1 (Mus musculus) (UniProt Q9JLN9); test: Inhibition of mTORC1 formation in mouse 3T3-L1 cells assessed as mLST8 expression level at 10 uM incubated for 24 hrs by reciprocal co-immunoprecipitation assay; assay type: cell-based
3T3-L1 [27] = test: Anti-adipogenic activity against mouse 3T3-L1 cells assessed as downregulation of C/EBPalpha protein expression level at 0.1 to 1 uM incubated for 24 hrs by Western blot analysis; assay type: functional, cell-based; conditions: dose 0.1-1 µM
mTORC1 (Mus musculus) [28] = target: mTORC1 (Mus musculus) (UniProt Q9JLN9); test: Inhibition of mTORC1 formation in mouse 3T3-L1 cells assessed as Raptor expression level at 10 uM incubated for 24 hrs by reciprocal co-immunoprecipitation assay; assay type: cell-based
3T3-L1 [29] = test: Anti-adipogenic activity against mouse 3T3-L1 cells assessed as downregulation of FAS protein expression level at 0.1 to 1 uM incubated for 6 days by Western blot analysis; assay type: functional, cell-based; conditions: dose 0.1-1 µM, time 6.0 day
Mus musculus [30] = test: Anti-obesity activity in high fat diet-induced obese C57BL/6J mouse assessed as decrease in body weight at 40 mg/kg, ip administered every two days for 46 days (Rvb=52.5%); assay type: functional; parameters: scale not given: the % may be the effect or the level left; conditions: time 46 day
mTORC1 (Mus musculus) [31] = target: mTORC1 (Mus musculus) (UniProt Q9JLN9); test: Inhibition of mTORC1 formation in mouse 3T3-L1 cells assessed as mTOR expression level at 10 uM incubated for 24 hrs by reciprocal co-immunoprecipitation assay; assay type: cell-based
3T3-L1 [32] = test: Anti-adipogenic activity against mouse 3T3-L1 cells assessed as downregulation of PPARgamma protein expression level at 0.1 to 1 uM incubated for 24 hrs by Western blot analysis; assay type: functional, cell-based; conditions: dose 0.1-1 µM
Mus musculus [33] = test: Anti-obesity activity in high fat diet-induced obese C57BL/6J mouse model assessed as reduction in blood glucose level at 40 mg/kg, ip administered every two days for 5 weeks pretreated with compound and followed by insulin stimulation and measured upto 120 mins by insulin tolerance test; assay type: functional, organism-based

inhibition [2]: Active | inhibition (mTORC1 (Mus musculus) [4]): Active | Activity [7]: Active | inhibition [10]: Active | inhibition (mTORC1 (Mus musculus) [14]): Active | inhibition (mTORC1 (Mus musculus) [17]): Active | inhibition (mTORC1 (Mus musculus) [18]): Active | inhibition [21]: Active | inhibition (mTORC1 (Mus musculus) [22]): inactive | inhibition [24]: Active | Kd [25]: 20.4 µM | inhibition (mTORC1 (Mus musculus) [26]): Active | inhibition (mTORC1 (Mus musculus) [28]): Active | inhibition (mTORC1 (Mus musculus) [31]): Active
SMILES: C=C(C)[C@@]12OC3(c4ccccc4)O[C@@H]1[C@@H]1[C@H](O)[C@](Cl)(COC(=O)c4ccccc4)[C@@H](O)[C@]4(O)C(=O)C(C)=C[C@H]4[C@@]1(O3)[C@H](C)[C@H]2OC(C)=O
Activity (Mus musculus [1]): Active | Activity (3T3-L1 [3]): Active | Activity (Mus musculus [5]): Active | Activity (Mus musculus [6]): Active | Activity (Mus musculus [8]): Active | Activity (Mus musculus [9]): Active | Activity (Mus musculus [11]): Active | Activity (3T3-L1 [12]): inactive | Activity (3T3-L1 [13]): Active | Activity (Mus musculus [15]): Active | Activity (3T3-L1 [16]): Active | Activity (3T3-L1 [19]): Active | Activity (Mus musculus [20]): Active | Activity (3T3-L1 [23]): Active | Activity (3T3-L1 [27]): Active | Activity (3T3-L1 [29]): Active | Activity (Mus musculus [30]): 26.8% | Activity (3T3-L1 [32]): Active | Activity (Mus musculus [33]): Active
